This is an account of results in patent US12337010B2, “Compositions and methods of treatment using nicotinamide mononucleotide” (Washington University, priority 2017, dated 2025).

One test deals with Slc12a8 mRNA expression. The test can be described thus: Slc12a8 mRNA expression by quantitative RT-PCR in cells and ex vivo small intestine explants. The conditions noted are these: FK866 plus NMN; primary hepatocytes, NIH3T3 fibroblasts (24 h), jejunum and ileum explants (4 h). Format: cell-based, mouse. Here is the method:
Cell culture and ex vivo small intestine explant culture. […] For Slc12a8 mRNA expression analysis, 2.5×10^5 cells per well were incubated in 6-well plates with DMEM with 1% FBS containing 0.1% DMSO or 100 nM FK866 or 100 nM FK866 plus 100 μM NMN for 24 h. Small intestines from 3-month old B6 male mice were cut into three segments with duodenum/jejunum/ileum length ratios of 1:3:2 (Wang, H. H., et al., Hepatology 45, 998-1006, 2007). […] Cellular and tissue RNA samples were analyzed by quantitative RT-PCR, as described previously (Stein, L. R. & Imai, S., EMBO J., 33, 1321-1340, 2014).
(§1) The amounts of adenosine produced were determined by HPLC. […] Silencing efficiencies were evaluated by quantitative RT-PCR.
FIG. 2 illustrates that Slc12a8 is highly expressed in the small intestine and pancreas and moderately in the liver and white adipose tissue of B6 male mice at 3 months of age (n=3 mice). […] Cells were treated with these compounds for 24 h (n=4 mice for hepatocytes treated with DMSO and FK866, and n=3 mice for hepatocytes treated with FK866 and NMN; n=6 for NIH3T3 cells; analyzed using ANOVA with Tukey's test). FIG. 5 illustrates surface and intracellular Slc12a8 protein expression levels were measured by flow cytometry analysis in NIH3T3 cells treated with FK866 or FK866 plus NMN for 48h. […]

The subject of test [1] is primary mouse hepatocytes. The test can be described thus: NMN uptake in primary mouse hepatocytes, intracellular NMN by HPLC. Format: cell-based. Here is the method: as §1
Primary mouse hepatocytes were pretreated with 500 nM FK866 for 24 h and then incubated with a cocktail of 20 μM dipyridamole, 500 μM AOPCP, and 500 nM FK866, with or without 100 μM NMN. NMN was measured by HPLC (n=4 mice, except for 3 data sets for 15 and 30 minute time points for inhibitors only; analyzed using ANOVA with Sidak's test).
To measure the knockdown efficiencies of Slc12a8 and Nrk1 mRNA in primary mouse hepatocytes, cells were treated with scramble and Slc12a8 or Nrk1 siRNA for 72 h (n=5 mice for Slc12a8 silencing and n=3 for Nrk1 silencing; analyzed by unpaired […] t-test). Without being limited by theory, these conditions knocked down expression of Slc12a8 and Nrk1, a major NR kinase that converts NR to NMN intracellularly (Belenky, P., et al., Cell, 129, 473-484, 2007). Primary hepatocytes treated with scramble, Slc12a8, and Nrk1 siRNA were assayed at 1 min after addition of 100 μM NMN via HPLC. Culture conditions were the same as described in Example 3 (n=5 mice for Slc12a8 silencing and n=3 for Nrk1 silencing; analyzed by ANOVA with Tukey's test). The knockdown efficiencies for both genes are approximately 80% (FIG. 7).

The next test deals with NIH3T3 cells. The test is described as follows: Intracellular NAD+ levels in control and Slc12a8-OE NIH3T3 cells. In kind it is cell-based, mouse. The conditions noted are these: Slc12a8-OE cells, additional 1-hr incubation with 100 μM NMN after inhibitor cocktail. An excerpt: NAD+ and NMN measurements by HPLC.
The subject of test [2] is various types of primary cells. The conditions noted are these: NMN co-administered with FK866, compared to NMN in the absence of FK866; cited from earlier work.

Each structure is given as a SMILES string.

In the case of `NC(=O)c1ccc[n+]([C@@H]2O[C@H](COP(=O)([O-])O)[C@@H](O)[C@H]2O)c1` [NMN, nicotinamide mononucleotide], the “Slc12a8 expression induced by FK866” value in the test with Slc12a8 mRNA expression is reported as “suppressed”. Further, the “intracellular NMN levels” value in test [1] (100 μM NMN with 20 μM dipyridamole, 500 μM AOPCP, 500 nM FK866, 1 min time point vs control) is listed as “significantly increase”. In test [1] (Nrk1-knockdown hepatocytes, 1 min after 100 μM NMN), the NMN uptake result was “no significant reduction”. The “fast uptake of NMN” value in test [1] (Slc12a8-knockdown hepatocytes, 1 min after 100 μM NMN) is reported as “completely abrogated”. The “intracellular NAD+ levels” value in the test on NIH3T3 cells is given as “restore NAD+ levels to the original levels”. Moreover, the “NAD+ increase” value in test [2] is given as “higher NAD+ increases”.
